Reference: US8354547B2, “4β-amino podophyllotoxin congeners as anti tumour antibiotics a process for the preparation thereof” (Council of Scientific & Industrial Research, priority 2008, dated 2013)

Assays:
[1] = tested on: Colon (SW-620) cancer cell line; experiment: SRB in vitro cytotoxicity assay, Colon SW-620; assay type: cell-based, human; conditions: concentration 1 × 10^−5 (μM/mL)
Method: (§1) Single cell suspension of the tumor cells grown in tissue culture were made, cells counted and cell count adjusted to 1×10^5 to 5×10^5 Ninetysix (96) well plates were seeded with this cell suspension, each well receiving 100 μl of it. The plate was then be incubated at 37° C. temperature in CO2 incubator for 24 hours. Drugs were added at appropriate concentrations after 24-hour, incubation followed by further incubation for 48 hours. Experiment was terminated by gently layering the cells in the wells with 30% TCA and plates were kept in refrigerator for 1 hour following which they were washed thoroughly with tap water, dried attained with 0.4% SRB in 1% acetic aid and finally, the bound SRB eluted with 10 mM tris. Absorbance was read at 540 nm, in the microtitre-plate reader. Optical density of drug-treated cells was compared with that of control cells and cell inhibition was calculated as percent values. […]

Topoisomerase-I = target: T1, Topoisomerase-I (Homo sapiens, UniProt P11387); experiment: Topoisomerase-I relaxation assay; assay type: biochemical; conditions: at 100 μM (FIG. 2)
T1 sequence (P11387 1-765): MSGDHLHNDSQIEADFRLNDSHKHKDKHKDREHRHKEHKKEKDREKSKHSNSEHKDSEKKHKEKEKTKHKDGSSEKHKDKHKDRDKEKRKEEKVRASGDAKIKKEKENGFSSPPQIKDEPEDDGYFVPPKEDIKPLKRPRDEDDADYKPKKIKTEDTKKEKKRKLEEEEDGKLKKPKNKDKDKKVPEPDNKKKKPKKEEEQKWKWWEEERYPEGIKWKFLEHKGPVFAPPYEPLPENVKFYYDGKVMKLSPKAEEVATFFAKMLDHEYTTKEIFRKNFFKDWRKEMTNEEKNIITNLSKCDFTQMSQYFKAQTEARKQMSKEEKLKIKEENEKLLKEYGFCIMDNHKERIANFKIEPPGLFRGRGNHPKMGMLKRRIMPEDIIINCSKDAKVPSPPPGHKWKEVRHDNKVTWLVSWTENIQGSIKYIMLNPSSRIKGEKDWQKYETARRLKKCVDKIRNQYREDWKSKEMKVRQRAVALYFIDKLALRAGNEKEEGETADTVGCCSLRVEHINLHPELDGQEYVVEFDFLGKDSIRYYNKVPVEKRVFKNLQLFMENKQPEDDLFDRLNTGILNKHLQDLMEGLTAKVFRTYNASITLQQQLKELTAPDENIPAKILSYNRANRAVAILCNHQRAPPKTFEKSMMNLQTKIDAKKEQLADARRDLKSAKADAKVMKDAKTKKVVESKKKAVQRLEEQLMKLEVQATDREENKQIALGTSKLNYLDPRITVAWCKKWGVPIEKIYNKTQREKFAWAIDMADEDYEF
Method: Apart from this, some of these analogues were evaluated for Topoisomerase-I relaxation, Topoisomerase-II inhibition, DNA laddering assay and DNA cell cycle analysis. Compounds 3c, 4c, 3d and 4d were analyzed for topoisomerase-I assay at 100 μM (FIG. 2) only compound 3d was found active and rest were not active. Compounds 3d, 4d and 4c were analyzed for topoisomerase inhibition assay.
Reaction was assembled in micro centrifuge tube that contains super coiled DNA 250 ng/μl & Topoisomerase-I (4 units) in assay buffer (10 mM Tris-HCl, pH 7.9, 0.15 M NaCl, 0.1% BSA, and 5.0 mM (beta)-mercaptoethanol). In each reaction 2 μl sample was added then volume was made up to 20 μl with water and then incubated at 37° C. Reaction was terminated by addition of 2 μl of 10% SDS. Each sample tube was treated with proteinase K and extracted once with chloroform: isoamyl alcohol. Products were resolved by 0.8% agarose gel electrophoresis in TAE buffer (40 mM tris-acetate, pH 8.0, and 1 mM EDTA) and stained with 0.5 μg/ml ethedium bromide (EtBr).

Lukemia (HL-60) cells = experiment: DNA cell cycle analysis by flow cytometry; assay type: cell-based; conditions: 0.5, 1, 5, and 10 μM, 24 hr (FIG. 5)
Method: (§2) Compound 3d evaluated for DNA laddering assay.
Effect of compound 3d on DNA content by cell cycle phase distribution was assessed using HL-60 cells by incubating the HL-60 cells (1×10^6) 1 ml phosphate buffer saline were treated with 3d (0.5, 1, 5, 10 μM) for 24 hr. The cells were then washed twice with ice-cold PBS, harvested, fixed with ice cold PBS in 70% ethanol, and stored at −20° C. for 30 minutes. After Fixation, these cells were incubated with RNase A (0.1 mg/ml) at 37° C. for 30 min, stained with propidium iodide (50 μg/ml) for 30 min on ice in dark, and then measured for DNA content using BD-LSR flow cytometer (Becton Dickinson, USA) equipped with electronic doublet discrimination capability using blue (488 nm) excitation from orgon laser. Data were collected in list mode on 10,000 events for FL2-A vs. FL2-W (FIG. 5).

[2] = tested on: Breast (MCF-7) cancer cell line; experiment: SRB in vitro cytotoxicity assay, Breast MCF-7; assay type: cell-based, human; conditions: concentration 1 × 10^−5 (μM/mL)
Method: as §1

[3] = tested on: CNS (SK-N-SH) cancer cell line; experiment: SRB in vitro cytotoxicity assay, CNS SK-N-SH; assay type: cell-based, human; conditions: concentration 1 × 10^−5 (μM/mL)
Method: as §1

[4] = tested on: Colon (Colo-205) cancer cell line; experiment: SRB in vitro cytotoxicity assay, Colon Colo-205; assay type: cell-based, human; conditions: concentration 1 × 10^−5 (μM/mL)
Method: as §1

leukemia (MOLT-4) cells = experiment: DNA laddering (fragmentation) assay by gel electrophoresis; assay type: cell-based; conditions: 0.5, 1, 5, and 10 μM, 24 hr incubation (FIG. 4)
Method: as §2
DNA fragmentation was determined by electrophoresis of extracted genomic DNA form leukemia cell (MOLT4). Briefly, exponentially growing cells (2×10^6 cells/mL) in 6 well plate were treated with compound 3d in 0.5, 1, 5 and 10 μM concentrations for 24 hrs. Cells were harvested, washed with PBS, pellets were dissolved in lyris buffer (10 mM EDTA, 50 mM Tris pH 8.0, 0.5% w/v SDS and proteinase K (0.5 mg/mL) and incubated at 50° C. for 1 hr. Finally the DNA obtained was heated rapidly to 70° C., supplemented with loading dye and immediately resolved on to 1.5% agarose gel at 50 V for 2-3 hrs (FIG. 4).

[5] = tested on: Neuroblastoma (IMR-32) cancer cell line; experiment: SRB in vitro cytotoxicity assay, Neuroblastoma IMR-32; assay type: cell-based, human; conditions: concentration 1 × 10^−5 (μM/mL)
Method: as §1

[6] = tested on: Liver (HEP-2) cancer cell line; experiment: SRB in vitro cytotoxicity assay, Liver HEP-2; assay type: cell-based, human; conditions: concentration 1 × 10^−5 (μM/mL)
Method: as §1

## COc1cc([C@@H]2c3cc4c(cc3[C@@H](Nc3cc5c6ccccc6ccc5c5ccccc35)[C@@H]3COC(=O)[C@H]23)OCO4)cc(OC)c1OC [Compound 3d, 4β-(6″-Chrycenylamino)-4-desoxypodophyllotoxin]
[1]
  Growth Inhibition(%) Colon SW-620: 14%
Topoisomerase-I
  activity in topoisomerase-I assay: active
Lukemia (HL-60) cells
  cell cycle phase block: blocks the G1 Phase
  sub G1 cell population (apoptosis): increase
[2]
  Growth Inhibition(%) Breast MCF-7: 0%
[3]
  Growth Inhibition(%) CNS SK-N-SH: 73%
[4]
  Growth Inhibition(%) Colon Colo-205: 51%
Leukemia (MOLT-4) cells
  DNA fragmentation: induced DNA fragmentation
[5]
  Growth Inhibition(%) Neuroblastma IMR-32: 1%
[6]
  Growth Inhibition(%) Liver HEP-2: 66%
